Our source for the EC50 values is ChEMBL document CHEMBL3872270, “Intelligent substance delivery into cells using cell-penetrating peptides” (Bioorg Med Chem Lett, 2017).

The structures appear in SMILES notation.

The test is described as follows: Cytotoxicity against human paclitaxel-resistant OVCA429 cells assessed as cell viability preincubated for 20 mins followed by wash and incubation in drug-free media for 72 hrs by MTT assay. The class given is functional, cell-based. For orientation: Tetrazolium assays rely on reduction of a dye to a coloured formazan, in cell work by metabolically active cells.

For the compound `CC(=O)O[C@H]1C(=O)[C@@]2(C)[C@H]([C@H](OC(=O)c3ccccc3)[C@]3(O)C[C@H](OC(=O)[C@H](OC(=O)CCCSSCCCCCCOP(=O)(OCCCCCCNC(=N)N)OCCOP(=O)(OCCCCCCNC(=N)N)OCCOP(=O)(OCCCCCCNC(=N)N)OCCOP(=O)(OCCCCCCNC(=N)N)OCCOP(=O)(OCCCCCCNC(=N)N)OCCOP(=O)(OCCCCCCNC(=N)N)OCCOP(=O)(OCCCCCCNC(=N)N)OCCOP(=O)(OCCO)OCCCCCCNC(=N)N)[C@@H](NC(=O)c4ccccc4)c4ccccc4)C(C)=C1C3(C)C)[C@]1(OC(C)=O)CO[C@@H]1C[C@@H]2O` (stereo partly specified), the EC50 came to 1.4 µM.

Usually EC50 stands for the concentration that produces a half-maximal response.
